# Measured values as given in patent publication US20120045393A1 (priority 2009, published 2012).
# Non-standard residues stand in square brackets, D forms with d. Residues, ends and D or L forms follow the SMILES beside them. *: point of attachment. DOTA = O=C(O)CN1CCN(CC(=O)O)CCN(CC(=O)*)CCN(CC(=O)O)CC1; Bpa = N[C@@H](Cc1ccc(C(=O)c2ccccc2)cc1)C(=O)O; Ala(4-thiazolyl) = N[C@@H](Cc1cscn1)C(=O)O; Phe(4-Cl) = N[C@@H](Cc1ccc(Cl)cc1)C(=O)O; d2Nal = N[C@H](Cc1ccc2ccccc2c1)C(=O)O; His(π-Me) = Cn1cncc1C[C@H](N)C(=O)O; azaGly = NNC(=O)O; Sar = CNCC(=O)O
# System: LHRH binding sites on human ovarian cancer cells (EFO-27)
# Details: not given
# 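Note: Cell-associated radioactivity on confluent EFO-27 monolayers in 96-well plates, measured by microplate scintillation counting.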
row,SMILES,EC50 [µM]
1,N=C(N)NCCC[C@H](NC(=O)[C@@H](Cc1ccc2ccccc2c1)NC(=O)CN1CCN(CC(=O)O)CCN(CC(=O)O)CCN(CC(=O)O)CC1)C(=O)N[C@@H](Cc1c[nH]c2ccccc12)C(=O)N[C@@H](CO)C(=O)N[C@@H](Cc1c[nH]cn1)C(=O)N[C@H](CCCNC(=N)N)C(=O)N[C@@H](Cc1c[nH]c2ccccc12)C(=O)O [compound 3046] (HELM PEPTIDE1{[O=C(O)CN1CCN(CC(=O)O)CCN(CC(=O)[*:2])CCN(CC(=O)O)CC1].[O=C([C@@H](Cc1ccc2ccccc2c1)N[*:1])[*:2]].R.W.S.H.[dR].W}$$$$V2.0; N-terminus assumed),15.9
2,CN(CC(N)=O)NC(=O)[C@@H]1CCCN1C(=O)[C@H](Cc1ccc(C(=O)c2ccccc2)cc1)NC(=O)[C@H](Cc1c[nH]c2ccccc12)NC(=O)[C@@H](CCCNC(=N)N)NC(=O)[C@H](Cc1c[nH]cn1)NC(=O)[C@H](CO)NC(=O)[C@H](Cc1c[nH]c2ccccc12)NC(=O)[C@H](CCCNC(=N)N)NC(=O)[C@@H](Cc1ccc2ccccc2c1)NC(=O)CN1CCN(CC(=O)O)CCN(CC(=O)O)CCN(CC(=O)O)CC1 [compound 2967],0.44
3,N=C(N)NCCC[C@H](NC(=O)[C@@H](Cc1ccc2ccccc2c1)NC(=O)CN1CCN(CC(=O)O)CCN(CC(=O)O)CCN(CC(=O)O)CC1)C(=O)N[C@@H](Cc1c[nH]c2ccccc12)C(=O)N[C@@H](CO)C(=O)N[C@@H](Cc1c[nH]cn1)C(=O)N[C@H](CCCNC(=N)N)C(=O)N[C@@H](Cc1c[nH]c2ccccc12)C(=O)N[C@@H](Cc1ccc(C(=O)c2ccccc2)cc1)C(=O)N1CCC[C@H]1C(=O)NNC(=O)NCCCCN [compound 3019],0.9
4,N=C(N)NCCC[C@H](NC(=O)[C@@H](Cc1ccc2ccccc2c1)NC(=O)CN1CCN(CC(=O)O)CCN(CC(=O)O)CCN(CC(=O)O)CC1)C(=O)N[C@@H](Cc1c[nH]c2ccccc12)C(=O)N[C@@H](CO)C(=O)N[C@@H](Cc1c[nH]cn1)C(=O)N[C@H](CCCNC(=N)N)C(=O)N[C@@H](Cc1c[nH]c2ccccc12)C(=O)N[C@@H](Cc1ccc(C(=O)c2ccccc2)cc1)C(=O)N1CCC[C@H]1C(=O)Nc1ccccc1 [compound 3006],0.42
5,CNCC(=O)N[C@@H](CCCNC(=N)N)C(=O)N[C@@H](Cc1c[nH]c2ccccc12)C(=O)N[C@@H](CO)C(=O)N[C@@H](Cc1c[nH]cn1)C(=O)N[C@H](CCCNC(=N)N)C(=O)N[C@@H](Cc1c[nH]c2ccccc12)C(=O)N[C@@H](Cc1ccc(C(=O)c2ccccc2)cc1)C(=O)N1CCC[C@H]1C(=O)NCCCNC(=O)CN1CCN(CC(=O)O)CCN(CC(=O)O)CCN(CC(=O)O)CC1 [compound 3076],0.75 ± 0.04

# Now from value to compound:
row,EC50 [µM],SMILES
1,5.28,CN(CC(=O)N[C@@H](Cc1cncn1C)C(=O)N[C@@H](Cc1c[nH]c2ccccc12)C(=O)N[C@@H](CO)C(=O)N[C@@H](Cc1cscn1)C(=O)N[C@H](CCCNC(=N)N)C(=O)N[C@@H](Cc1c[nH]c2ccccc12)C(=O)N[C@@H](Cc1ccc(C(=O)c2ccccc2)cc1)C(=O)N1CCC[C@H]1C(=O)NNC(N)=O)C(=O)CN1CCN(CC(=O)O)CCN(CC(=O)O)CCN(CC(=O)O)CC1 [BRU-2739] ({DOTA}-[Sar][His(π-Me)]WS[Ala(4-thiazolyl)][dR]W[Bpa]P[azaGly]-NH2; C-terminus assumed)
2,0.76,CN(C(=O)CN1CCN(CC(=O)O)CCN(CC(=O)O)CCN(CC(=O)O)CC1)[C@H](Cc1ccc2ccccc2c1)C(=O)N[C@@H](Cc1c[nH]cn1)C(=O)N[C@@H](Cc1c[nH]c2ccccc12)C(=O)N[C@@H](CO)C(=O)N[C@@H](Cc1c[nH]cn1)C(=O)N[C@H](CCCNC(=N)N)C(=O)N[C@@H](Cc1c[nH]c2ccccc12)C(=O)N[C@@H](Cc1ccc(C(=O)c2ccccc2)cc1)C(=O)N1CCC[C@H]1C(=O)NNC(N)=O [BRU-3003]
3,2.14,CN(CC(=O)N[C@@H](Cc1c[nH]cn1)C(=O)N[C@@H](Cc1c[nH]c2ccccc12)C(=O)N[C@@H](CO)C(=O)N[C@@H](Cc1c[nH]cn1)C(=O)N[C@H](CCCNC(=N)N)C(=O)N[C@@H](Cc1c[nH]c2ccccc12)C(=O)N[C@@H](Cc1ccc(-c2ccccc2)cc1)C(=O)N1CCC[C@H]1C(=O)NNC(N)=O)C(=O)CN1CCN(CC(=O)O)CCN(CC(=O)O)CCN(CC(=O)O)CC1 [BRU-2625]
4,4.31,CN(CC(=O)N[C@@H](Cc1c[nH]cn1)C(=O)N[C@@H](Cc1c[nH]c2ccccc12)C(=O)N[C@@H](CO)C(=O)N[C@@H](Cc1c[nH]cn1)C(=O)N[C@H](CCCNC(=N)N)C(=O)N[C@@H](Cc1c[nH]c2ccccc12)C(=O)NC1(C(=O)N2CCC[C@H]2C(=O)NNC(N)=O)Cc2ccccc2C1)C(=O)CN1CCN(CC(=O)O)CCN(CC(=O)O)CCN(CC(=O)O)CC1 [BRU-2764]
5,0.63,CN(CC(=O)N[C@@H](Cc1ccc(Cl)cc1)C(=O)N[C@@H](Cc1c[nH]c2ccccc12)C(=O)N[C@@H](CO)C(=O)N[C@@H](Cc1c[nH]cn1)C(=O)N[C@H](CCCNC(=N)N)C(=O)N[C@@H](Cc1c[nH]c2ccccc12)C(=O)N[C@@H](Cc1ccc(C(=O)c2ccccc2)cc1)C(=O)N1CCC[C@H]1C(=O)NNC(N)=O)C(=O)CN1CCN(CC(=O)O)CCN(CC(=O)O)CCN(CC(=O)O)CC1 [BRU-2719] ({DOTA}-[Sar][Phe(4-Cl)]WSH[dR]W[Bpa]P[azaGly]-NH2)
6,2.6,N=C(N)NCCC[C@H](NC(=O)[C@@H](Cc1ccc2ccccc2c1)NC(=O)CN1CCN(CC(=O)O)CCN(CC(=O)O)CCN(CC(=O)O)CC1)C(=O)N[C@@H](CCC(=O)O)C(=O)N[C@@H](CO)C(=O)N[C@@H](Cc1c[nH]cn1)C(=O)N[C@H](CCCNC(=N)N)C(=O)N[C@@H](Cc1c[nH]c2ccccc12)C(=O)N[C@@H](Cc1ccc(C(=O)c2ccccc2)cc1)C(=O)N1CCC[C@H]1C(=O)NNC(N)=O [BRU-3110] ({DOTA}-[d2Nal]RESH[dR]W[Bpa]P[azaGly]-NH2; C-terminus assumed)
7,7.34,CN(CC(=O)N[C@@H](Cc1c[nH]cn1)C(=O)N[C@@H](Cc1c[nH]c2ccccc12)C(=O)N[C@@H](CO)C(=O)N[C@@H](Cc1cscn1)C(=O)N[C@H](CCCNC(=N)N)C(=O)N[C@@H](Cc1c[nH]c2ccccc12)C(=O)N[C@@H](Cc1ccc(C(=O)c2ccccc2)cc1)C(=O)N1CCC[C@H]1C(=O)NNC(N)=O)C(=O)CN1CCN(CC(=O)O)CCN(CC(=O)O)CCN(CC(=O)O)CC1 [BRU-2769] ({DOTA}-[Sar]HWS[Ala(4-thiazolyl)][dR]W[Bpa]P[azaGly]-NH2; C-terminus assumed)
8,2,N=C(N)NCCC[C@H](NC(=O)[C@H](Cc1ccc(C(=O)O)cc1)NC(=O)CN1CCN(CC(=O)O)CCN(CC(=O)O)CCN(CC(=O)O)CC1)C(=O)N[C@@H](Cc1c[nH]c2ccccc12)C(=O)N[C@@H](CO)C(=O)N[C@@H](Cc1c[nH]cn1)C(=O)N[C@H](CCCNC(=N)N)C(=O)N[C@@H](Cc1c[nH]c2ccccc12)C(=O)N[C@@H](Cc1ccc(C(=O)c2ccccc2)cc1)C(=O)N1CCC[C@H]1C(=O)NNC(N)=O [BRU-3092]
9,4.2,N=C(N)NCCC[C@H](NC(=O)[C@@H](Cc1ccc2ccccc2c1)NC(=O)CN1CCN(CC(=O)O)CCN(CC(=O)O)CCN(CC(=O)O)CC1)C(=O)N[C@@H](Cc1c[nH]c2ccccc12)C(=O)N[C@@H](CC(=O)O)C(=O)N[C@@H](Cc1c[nH]cn1)C(=O)N[C@H](CCCNC(=N)N)C(=O)N[C@@H](Cc1c[nH]c2ccccc12)C(=O)N[C@@H](Cc1ccc(C(=O)c2ccccc2)cc1)C(=O)N1CCC[C@H]1C(=O)NNC(N)=O [BRU-2954] ({DOTA}-[d2Nal]RWDH[dR]W[Bpa]P[azaGly]-NH2)

# Same assay, conditions: EFO-27 cells, competition with [125I-Tyr8]BRU-2477, 90 min
row,SMILES,EC50 [µM]
1,CN(CC(=O)N[C@@H](Cc1c[nH]cn1)C(=O)N[C@@H](Cc1c[nH]c2ccccc12)C(=O)N[C@@H](CO)C(=O)N[C@@H](Cc1ccc(O)cc1)C(=O)N[C@H](CCCNC(=N)N)C(=O)N[C@@H](Cc1c[nH]c2ccccc12)C(=O)N[C@@H](Cc1ccc(C(=O)c2ccccc2)cc1)C(=O)N1CCC[C@H]1C(=O)NNC(N)=O)C(=O)CN1CCN(CC(=O)O)CCN(CC(=O)O)CCN(CC(=O)O)CC1 [BRU-2668] ({DOTA}-[Sar]HWSY[dR]W[Bpa]P[azaGly]-NH2; C-terminus assumed),3.47
2,CN(CC(=O)N[C@@H](Cc1c[nH]cn1)C(=O)N[C@@H](Cc1c[nH]c2ccccc12)C(=O)N[C@@H](CO)C(=O)N[C@@H](Cc1c[nH]cn1)C(=O)N[C@H](CO)C(=O)N[C@@H](Cc1c[nH]c2ccccc12)C(=O)N[C@@H](Cc1ccc(C(=O)c2ccccc2)cc1)C(=O)N1CCC[C@H]1C(=O)NNC(N)=O)C(=O)CN1CCN(CC(=O)O)CCN(CC(=O)O)CCN(CC(=O)O)CC1 [compound 2761] ({DOTA}-[Sar]HWSH[dS]W[Bpa]P[azaGly]-NH2),13.6

# Same assay, conditions: Table 5: modifications of amino acids at positions 1 and 2; in vitro binding on EFO-27 cells
row,SMILES,EC50 [µM]
1,CN(CC(=O)N[C@@H](CCCNC(=N)N)C(=O)N[C@@H](Cc1c[nH]c2ccccc12)C(=O)N[C@@H](CO)C(=O)N[C@@H](Cc1c[nH]cn1)C(=O)N[C@H](CCCNC(=N)N)C(=O)N[C@@H](Cc1c[nH]c2ccccc12)C(=O)N[C@@H](Cc1ccc(C(=O)c2ccccc2)cc1)C(=O)N1CCC[C@H]1C(=O)NNC(N)=O)C(=O)CN1CCN(CC(=O)O)CCN(CC(=O)O)CCN(CC(=O)O)CC1 [BRU-2817],1.7
2,N=C(N)NCCC[C@@H](NC(=O)[C@H](Cc1c[nH]cn1)NC(=O)[C@H](CO)NC(=O)[C@H](Cc1c[nH]c2ccccc12)NC(=O)[C@H](Cc1c[nH]cn1)NC(=O)[C@@H]1CSCN1C(=O)CNC(=O)CN1CCN(CC(=O)O)CCN(CC(=O)O)CCN(CC(=O)O)CC1)C(=O)N[C@@H](Cc1c[nH]c2ccccc12)C(=O)N[C@@H](Cc1ccc(C(=O)c2ccccc2)cc1)C(=O)N1CCC[C@H]1C(=O)NNC(N)=O [BRU-2728],3.15
3,CCN(CC(=O)N[C@@H](Cc1c[nH]cn1)C(=O)N[C@@H](Cc1c[nH]c2ccccc12)C(=O)N[C@@H](CO)C(=O)N[C@@H](Cc1c[nH]cn1)C(=O)N[C@H](CCCNC(=N)N)C(=O)N[C@@H](Cc1c[nH]c2ccccc12)C(=O)N[C@@H](Cc1ccc(C(=O)c2ccccc2)cc1)C(=O)N1CCC[C@H]1C(=O)NNC(N)=O)C(=O)CN1CCN(CC(=O)O)CCN(CC(=O)O)CCN(CC(=O)O)CC1 [BRU-2788],0.21

# Same assay, conditions: Table 12: modification of amino acid at position 3; EFO-27 cells
row,SMILES,EC50 [µM]
1,N=C(N)NCCC[C@H](NC(=O)[C@@H](Cc1ccc2ccccc2c1)NC(=O)CN1CCN(CC(=O)O)CCN(CC(=O)O)CCN(CC(=O)O)CC1)C(=O)N[C@H](Cc1c[nH]c2ccccc12)C(=O)N[C@@H](CO)C(=O)N[C@@H](Cc1c[nH]cn1)C(=O)N[C@H](CCCNC(=N)N)C(=O)N[C@@H](Cc1c[nH]c2ccccc12)C(=O)N[C@@H](Cc1ccc(C(=O)c2ccccc2)cc1)C(=O)N1CCC[C@H]1C(=O)NNC(N)=O [compound 3112],0.85

# Same assay, conditions: ratio of EC50 to BRU-2813 (EC50=0.33 μM)
row,SMILES,"binding potency, times lower than BRU-2813"
1,N=C(N)NCCC[C@H](NC(=O)[C@@H](Cc1ccc2ccccc2c1)NC(=O)CN1CCN(CC(=O)O)CCN(CC(=O)O)CCN(CC(=O)O)CC1)C(=O)N[C@@H](CCC(=O)O)C(=O)N[C@@H](CO)C(=O)N[C@@H](Cc1c[nH]cn1)C(=O)N[C@H](CCCNC(=N)N)C(=O)N[C@@H](Cc1c[nH]c2ccccc12)C(=O)N[C@@H](Cc1ccc(C(=O)c2ccccc2)cc1)C(=O)N1CCC[C@H]1C(=O)NNC(N)=O [BRU-3110] ({DOTA}-[d2Nal]RESH[dR]W[Bpa]P[azaGly]-NH2; C-terminus assumed),~8
2,N=C(N)NCCC[C@H](NC(=O)[C@@H](Cc1ccc2ccccc2c1)NC(=O)CN1CCN(CC(=O)O)CCN(CC(=O)O)CCN(CC(=O)O)CC1)C(=O)N[C@@H](Cc1c[nH]c2ccccc12)C(=O)N[C@@H](CC(=O)O)C(=O)N[C@@H](Cc1c[nH]cn1)C(=O)N[C@H](CCCNC(=N)N)C(=O)N[C@@H](Cc1c[nH]c2ccccc12)C(=O)N[C@@H](Cc1ccc(C(=O)c2ccccc2)cc1)C(=O)N1CCC[C@H]1C(=O)NNC(N)=O [BRU-2954] ({DOTA}-[d2Nal]RWDH[dR]W[Bpa]P[azaGly]-NH2),~13
